From ChEMBL document CHEMBL1158108, “C35 terpenoids from the bark of Calocedrus macrolepis var. formosana with activity against human cancer cell lines” (J Nat Prod, 2006)

Tested on: KB
Assay: Cytotoxicity against human KB cells after 72 hrs
Assay type: functional, cell-based

`C=C1CC[C@@H]([C@H]2C[C@H]3C(C)(C)CCC[C@]3(C)c3cc(O)c(C(C)C)cc32)[C@]2(C)CC[C@@H](C(C)(C)O)C[C@@H]12` [FERRUGIEUDESMOL] gave an IC50 of 11.4 µM.
In the case of `CC(C)c1cc2c(cc1O)[C@@]1(C)CCCC(C)(C)[C@@H]1C[C@H]2CC1=C[C@@H]2[C@@H](CC1)[C@](C)(O)CC[C@H]2C(C)C` [FERRUGICADINOL], the IC50 is reported as 14.1 µM.
Compound `COc1cc([C@@H]2c3cc4c(cc3[C@@H](O[C@@H]3O[C@@H]5CO[C@@H](C)O[C@H]5[C@H](O)[C@H]3O)[C@H]3COC(=O)[C@H]23)OCO4)cc(OC)c1O` [ETOPOSIDE] has an IC50 of 2 µM.
